In patent US20220306695A1, “COMPSTATIN ANALOGUES AND THEIR MEDICAL USES” (priority 2019, published 2022):
Positions of bridges follow the written chain, without caps; N, C: chain ends. Non-standard residues stand in square brackets, D forms with d. Residues, ends and D or L forms follow the SMILES beside them. Trp(1-Me) = Cn1cc(C[C@H](N)C(=O)O)c2ccccc21

B1: Compound 1 (peptide)
peptide: Ac-ICIWQDWGAHRCT-NH2
modifications: disulfide 2-12
SMILES: CC[C@H](C)[C@H](NC(C)=O)C(=O)N[C@H]1CSSC[C@@H](C(=O)N[C@H](C(N)=O)[C@@H](C)O)NC(=O)[C@H](CCCNC(=N)N)NC(=O)[C@H](Cc2c[nH]cn2)NC(=O)[C@H](C)NC(=O)CNC(=O)[C@H](Cc2c[nH]c3ccccc23)NC(=O)[C@H](CC(=O)O)NC(=O)[C@H](CCC(N)=O)NC(=O)[C@H](Cc2c[nH]c3ccccc23)NC(=O)[C@H]([C@@H](C)CC)NC1=O

Legend:
[1] = tested on: alternative complement pathway; assay: Ex vivo alternative pathway complement activity (WIESLAB kit) in serum of dosed non-human primates; set-up: species or system Cynomolgus monkeys (Macaca fascicularis); conditions: NHP, subcutaneous 1840 nmol/kg, FIG. 1
Experimental: FIG. 1(a-g): Normalized “ex vivo” activity of the alternative complement pathway over time after administration of a test compound at time 0 to non-human primates. Compounds were given subcutaneously at a dose of 1840 nmol/kg. Complement activity (alternative pathway) was measured using the Wieslab kit. Activity was normalized using the predose (0) sample (set to 100%) and the negative control included in the kit. Normalized activity or average normalized activity for animals and standard deviation is shown.
Healthy male Cynomolgus monkeys (Macaca fascicularis) received single subcutaneous administrations of each test substance. Compounds were formulated in 20 mM phosphate adjusted with NaOH to pH 7.5 and mannitol for isotonicity and dosed at 1840 nmol/kg. Blood was collected from a femoral vein from each animal at the following times: Pre-dose, 1, 2, 4, 8, 24, 48, 72, 96 and 120 h (10 sampling times). Blood was collected into serum separation tubes and allowed to clot at room temperature. The tubes were centrifuged and resulting serum was aliquoted and snap-frozen over dry-ice and stored at nominally −80° C. until analysis. All NHP studies were performed in accordance with animal welfare laws and regulations, including approval of the study by a local ethical review process.
Serum isolated from non-human primates at specific time points after dosing were analyzed for alternative pathway complement activity using the Complement system Alternative Pathway WIESLAB® kit from Svar Life Science (previously Euro diagnostic AB, Sweden) following the manufacturer's protocol. Briefly, serum samples or controls were diluted in buffer and incubated in microtitre strips coated with specific activators of the alternative pathway. The wells were washed and formed C5b-9 was detected using included colorimetric reagents.
Absorbance at 405 nm was measured. The percent activity of the alternative complement pathway was calculated for each animal and timepoint relative to the pre-dose activity (0 hours) of the individual animal with subtraction of the negative control. […]

[2] = tested on: classical complement pathway; assay: In vitro haemolysis assay (inhibition of classical complement pathway); assay type: cell-based, human; conditions: Table 3; human serum, sensitized sheep red blood cells; read-out: IC50[nM], in vitro analysis of inhibition of hemolysis
Method in brief: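 Serially diluted compound (9 points) was preincubated 15 min at room temperature with diluted human serum, titrated per batch to give 70-90% maximal haemolysis, in Tris/casein buffer pH 7.4 with Mg2+/Ca2+. Antibody-sensitized sheep erythrocytes were then added for 30 min at 37° C, and the reaction was stopped with EDTA. Haemolysis was read at A405, with IC50 from 4PL fit.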

in vivo = assay: in vivo; set-up: species or system Cynomolgus monkeys (Macaca fascicularis); conditions: male, cynomolgus monkey, sc, 1840 nmol/kg, t½
Method in brief: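 Healthy male cynomolgus monkeys dosed once subcutaneously at 1840 nmol/kg in 20 mM phosphate pH 7.5 with mannitol. Serum sampled pre-dose to 120 h and total drug measured by SPE and LC-MS/MS. Terminal half-life calculated non-compartmentally as ln(2)/λz from the terminal log-linear phase.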

[3] = Solubility test at 10 mg/mL (visual inspection and light scattering); assay type: physicochemical
Human C3 [4] = biological target: T1, Human C3 (human, UniProt P01024 23-1663); assay: cell-based or functional assay
Human C3 [5] = biological target: T1, Human C3; assay: cell-based or functional assay; remark: listed apart in the source

T1 sequence (P01024 23-1663 limits assumed): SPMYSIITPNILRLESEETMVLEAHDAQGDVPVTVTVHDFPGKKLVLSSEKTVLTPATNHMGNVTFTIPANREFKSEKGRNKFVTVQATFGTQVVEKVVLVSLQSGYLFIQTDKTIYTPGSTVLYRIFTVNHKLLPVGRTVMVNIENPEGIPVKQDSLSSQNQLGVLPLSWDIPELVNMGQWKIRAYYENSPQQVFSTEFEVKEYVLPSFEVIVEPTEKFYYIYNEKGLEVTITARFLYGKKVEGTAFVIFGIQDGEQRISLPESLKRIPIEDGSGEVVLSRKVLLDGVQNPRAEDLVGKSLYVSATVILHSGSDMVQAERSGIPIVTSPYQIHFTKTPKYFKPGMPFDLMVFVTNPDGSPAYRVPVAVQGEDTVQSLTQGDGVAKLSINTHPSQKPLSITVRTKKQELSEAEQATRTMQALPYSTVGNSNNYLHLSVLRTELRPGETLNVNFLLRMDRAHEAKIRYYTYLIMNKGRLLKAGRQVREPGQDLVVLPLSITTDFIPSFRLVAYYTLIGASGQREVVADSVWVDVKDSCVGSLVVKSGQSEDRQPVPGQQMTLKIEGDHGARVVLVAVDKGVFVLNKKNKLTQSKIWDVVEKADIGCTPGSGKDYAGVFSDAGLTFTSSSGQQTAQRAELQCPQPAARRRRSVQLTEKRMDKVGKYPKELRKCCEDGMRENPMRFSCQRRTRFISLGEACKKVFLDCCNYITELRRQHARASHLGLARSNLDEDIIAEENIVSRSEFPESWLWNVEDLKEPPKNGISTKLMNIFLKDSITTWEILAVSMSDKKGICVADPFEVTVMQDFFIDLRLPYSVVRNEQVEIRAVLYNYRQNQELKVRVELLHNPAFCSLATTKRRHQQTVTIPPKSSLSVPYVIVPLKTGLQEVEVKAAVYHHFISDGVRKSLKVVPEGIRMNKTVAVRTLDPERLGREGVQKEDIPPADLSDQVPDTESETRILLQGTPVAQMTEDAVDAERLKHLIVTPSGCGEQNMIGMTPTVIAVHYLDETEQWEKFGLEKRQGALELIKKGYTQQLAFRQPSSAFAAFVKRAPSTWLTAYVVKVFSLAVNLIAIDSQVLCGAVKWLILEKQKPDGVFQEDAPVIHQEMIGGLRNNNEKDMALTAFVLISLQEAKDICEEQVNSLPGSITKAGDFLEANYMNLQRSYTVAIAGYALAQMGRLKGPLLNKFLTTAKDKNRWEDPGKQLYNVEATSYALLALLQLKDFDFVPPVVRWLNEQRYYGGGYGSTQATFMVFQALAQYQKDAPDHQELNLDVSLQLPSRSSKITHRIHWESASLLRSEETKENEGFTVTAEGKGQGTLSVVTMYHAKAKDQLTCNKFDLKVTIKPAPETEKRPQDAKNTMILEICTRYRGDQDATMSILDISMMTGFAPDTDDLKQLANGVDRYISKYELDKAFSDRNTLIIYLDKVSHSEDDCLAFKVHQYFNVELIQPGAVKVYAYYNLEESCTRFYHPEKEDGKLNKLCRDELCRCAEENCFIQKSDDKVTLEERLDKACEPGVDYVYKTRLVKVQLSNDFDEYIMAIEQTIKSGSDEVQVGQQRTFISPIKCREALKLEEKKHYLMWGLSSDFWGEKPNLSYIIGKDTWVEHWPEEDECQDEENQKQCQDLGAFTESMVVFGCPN

Molecule	Duration of pharmacological activity (alternative complement pathway activity) in vivo [1]	IC50 [2] [nM]	half-life (in vivo) [h]	Solubility, Condition 1 Acetate pH 4 ([3]; 10 mg/mL compound in 100 mM acetate pH 4)	Solubility, Condition 2 Acetate pH 5 ([3]; 10 mg/mL compound in 100 mM acetate pH 5)	Solubility, Condition 3 Phosphate pH 6 ([3]; 10 mg/mL compound in 100 mM phosphate pH 6)	Solubility, Condition 4 Phosphate pH 7 ([3]; 10 mg/mL compound in 100 mM phosphate pH 7)	Solubility, Condition 5 Phosphate pH 7.5 ([3]; 10 mg/mL compound in 100 mM phosphate pH 7.5)	IC50[nM], inhibition of hemolysis (Human C3 [4]) [nM]	CP hemolysis IC50 (Human C3 [5]) [nM]
CC[C@H](C)[C@@H]1NC(=O)[C@@H](NC(=O)[C@H](Cc2ccccc2)NC(C)=O)CSSC[C@@H](C(=O)N[C@H](C(=O)NCC(=O)N[C@@H](C)C(=O)N[C@@H](CCC(=O)O)C(=O)N[C@@H](CO)C(N)=O)[C@@H](C)O)NC(=O)[C@H](CCCNC(=N)N)NC(=O)[C@H](Cc2c[nH]cn2)NC(=O)[C@H](CCC(=O)O)NC(=O)CNC(=O)[C@H](Cc2c[nH]c3ccccc23)NC(=O)[C@H](CC(=O)O)NC(=O)[C@H](CCC(N)=O)NC(=O)[C@H](Cc2cn(C)c3ccccc23)NC1=O [Compound 61] (Ac-FCI[Trp(1-Me)]QDWGEHRCTGAES-NH2; disulfide 2-12)	relatively short duration of action	< 100	23.3	− (denotes lack of solubility at the given condition, as UV absorbance at 340 nm exceeds 0.1 AU and/or it is visibly turbid or contains particles.)	− (denotes lack of solubility at the given condition, as UV absorbance at 340 nm exceeds 0.1 AU and/or it is visibly turbid or contains particles.)	+ (denotes solubility at the given condition, as determined by UV absorbance being less than 0.1 AU at 340 nm and the sample being clear when manually inspected.)	+ (denotes solubility at the given condition, as determined by UV absorbance being less than 0.1 AU at 340 nm and the sample being clear when manually inspected.)	+ (denotes solubility at the given condition, as determined by UV absorbance being less than 0.1 AU at 340 nm and the sample being clear when manually inspected.)		
B1									< 250	150
